We go through eight molecules from patent publication US20260263638A1, “COMPOSITIONS AND METHODS TO IMPROVE RNA PROPERTIES USING BASE, PHOSPHODIESTER LINKAGE, SUGAR BACKBONE, AND CAP MODIFICATIONS” (The Broad Institute, Inc., priority 2023, published 2026).

As a reminder, the Kd is the free concentration of one partner at which half of the binding sites on the other are occupied at equilibrium, for simple one-to-one binding.

The test system of data set [1] is HeLa cells. As to the kind of experiment: Time-course dual luciferase assay of modified Firefly luciferase mRNA (Renilla control). It counts as cell-based. The following applies: HeLa cells; 8-, 24-, 48-hours post-transfection; benchmark m7G-rG. As for the experimental part:
The modularity of this workflow enabled divergent construction and evaluation of mRNAs featuring four different types of cap and 5′ UTR modifications (FIG. 8A): (1) base identities within the 5′ UTR, including as locations beyond the third base (+3 position), (2) phosphodiester linkages within the 5′ UTR, (3) sugar backbone modifications within the 5′ UTR, and (4) cap modifications. The effects of all of these different types of modifications on protein translation were assayed using Firefly luciferase reporter at 8-, 24-, and 48-hours post-transfection.
HeLa cells [ATCC, CCL-2] were maintained in DMEM culture media [ThermoFisher Scientific, 119951] containing 10% FBS and 1% penicillin-streptomycin [ThermoFisher Scientific, 15070063] in a 37° C. incubator with 5% CO2 and passaged at a ratio of 1:10 every 3 days. On the day before mRNA transfection, HeLa cells were seeded at 90% confluence in individual wells on 24-well plates. The following day, 50 ng of Renilla luciferase (internal control) mRNA and 50 ng of modified Firefly luciferase mRNA were transfected using Lipofectamine MessengerMAX Transfection Reagent [ThermoFisher Scientific, LMRNA003] per manufacturer's protocols. Additional controls that contain only Renilla luciferase mRNA or lipofection reagent only were included. Three individual transfections were conducted for each condition. 6 hours after transfection, the transfection media was removed, and cells were trypsinized and reseeded to three white clear-bottom 96-well plates [Corning, 3610] in phenol-red-free media. At 8-, 24-, and 48-hours post-transfection, cell culture media was removed and cells were rinsed with DPBS. Cells were lysed and luciferase activity was measured using the Promega Dual Glo Luciferase Assay System [Promega, E2920]. Firefly luminescence/Renilla luminescence for each well was used as mRNA activity readout. In cases where Nluc and Fluc were used, the protocol was conducted similarly using the Nano-Glo Dual-Luciferase Reporter Assay System [Promega, N1610].

Data set [2] concerns the target T1, human decapping enzyme 2 (hDcp2) (Homo sapiens, UniProt Q8IU60).
T1 construct: purchased Enzymax LLC 86
As to the kind of experiment: hDcp2 decapping assay. In kind it is biochemical. The following applies: 23-nt capped oligos; for Susceptibility / resistance to hDcp2 decapping: result in words. As for the experimental part: Next, the influence of modifications on decapping activity was examined. To this end, 23-nucleotide (23-nt) oligonucleotides with various modification patterns were subjected to decapping reactions and analyzed at different time intervals (FIGS. 14E and 9I).
500 ng of capped oligos were incubated in 75 μL decapping reaction buffer (10 mM Tris-HCl (pH 7.5), 100 mM NaCl, 2 mM MgCl2, 1 mM DTT, 2 mM MnCl2, 1:25 SUPERaseIn (v/v)) with 300 ng of hDcp2 [Enzymax LLC, 86] at 37° C. At indicated time points, 5 μL of reaction mixture was aliquoted out into 10 μL of denaturing gel-loading buffer [NEB, B0363S, with urea added to a final concentration of 5 M] and cooled to −20° C. until all time points were collected. The fractions were analyzed by PAGE using Novex 15% TBE-Urea gel [Invitrogen, EC6885BOX] by running at 100 V for 2 hours and stained by 1×SYBR Gold [ThermoFisher Scientific, S11494], and visualized using BioRad ChemiDoc MP Imaging System [12003154]. Band intensities were quantified using ImageJ.

The target of data set [3] is T2, eIF4E (Homo sapiens, UniProt P06730).
T2 construct: His; purchased Cayman Chemical Inc 25150
As to the kind of experiment: eIF4E electrophoretic mobility shift assay (EMSA). The following applies: AF647-labeled capped oligos, read-out: eIF4E dissociation constant (Kd). It counts as binding. As for the experimental part: (§1) eIF4E affinity to fluorophore-labeled capped RNA oligonucleotides was quantified through electrophoretic mobility shift assay (EMSA) (FIGS. 14D and 9A-9E).
(§2) Capped oligonucleotides were labeled on the 3′ end using AF647 labeled cytidine-5′-phosphate-3′-(6-aminohexyl) phosphate [Jena Bioscience, NU-1706-AF647] and T4 RNA ligase ligated AF647-labeled cytidine onto the capped oligos using manufacturer's protocols. Oligos were then incubated in the binding buffer (1 mM DTT, 50 mM KCl, 10 mM Tris-HCl (pH 7.6), Novex Hi-Density TBE Sample Buffer [Invitrogen, LC6678]) with varying eIF4E-His [Cayman Chemical Inc, 25150] concentrations prepared by sequential dilutions from the stock solution. The oligos and […] were incubated at 4° C. for 30 mins and characterized by EMSA with Novex TBE Gels, 4-20% [Invitrogen, EC6225BOX] at 4° C. AF647 labeled oligos were imaged with BioRad ChemiDoc MP Imaging System [12003154] and band intensities were quantified using ImageJ. For Kd calculation, the proportions of bound were plotted against eIF4E concentration using GraphPad Prism (Specific binding with Hill slope).
Background: A gel shift assay detects complexes by their altered migration in electrophoresis.

Data set [4] concerns HeLa cells. As to the kind of experiment: NLuc bioluminometry of circRNA/QRNA (Fluc transfection control). In kind it is cell-based. Conditions: capped oligo:circRNA up to 80:1 molar ratio. As for the experimental part: Synthetic linear mRNA encoding NanoLuciferase (NLuc) was prepared from DNA template by IVT with 100% m1ψ substitution. The triphosphorylated mRNA after IVT was then treated with Calf Intestinal Alkaline Phosphatase (CIAP) to yield 5′/3′-hydroxyl mRNA. A chemically synthesized oligonucleotide with a branched m7G cap and 5′/3′-phosphates was then ligated to the 5′/3′-hydroxyl mRNA by T4 RNA ligase, which ligates the 5′-phosphate on the oligo and 3′-hydroxyl of the mRNA. The ligation product was then further treated with RtcB ligase, which ligates the 5′-hydroxyl and 3′-phosphate ends to enable intramolecular circularization. […] Using one primer only produced no fragmentation but only linearization, confirming successful circularization. Using double primers produced fragments flanking the branched region, where branched topology was confirmed by gel shift. […] NLuc bioluminometry was measured 8 hrs post transfection and normalized Firefly luciferase as transfection control. Mean±s.e.m., n=3. P values were calculated by ordinary one-way ANOVA (alpha=0.05), with multiple comparisons to circ-NLuc with only 5-octadiynyl deoxyuridine (OU) handle (construct 45). ****P<0.0001, n.s. P>0.05. […] QRNA with m7G (construct 48) was compared. n=3, biological replicates. Mean±sem. P values were calculated by ordinary one-way ANOVA with multiple comparisons against construct 61 without any cotransfected capped oligos (Dunnett's multiple comparison test). […] P values were calculated by unpaired two-sided t-test.
HeLa cells [ATCC, CCL-2] were maintained in DMEM culture media [ThermoFisher Scientific, 119951] containing 10% FBS and 1% penicillin-streptomycin [ThermoFisher Scientific, 15070063] in a 37° C. incubator with 5% CO2 and passaged at a ratio of 1:10 every 3 days. […] Cells were lysed and luciferase activity was measured using the Promega Dual Glo Luciferase Assay System [Promega, E2920]. Firefly luminescence/Renilla luminescence for each well was used as mRNA activity readout. […]

For a further data set, the system named is reticulocytes. Description: Plasma reticulocyte counting by flow cytometry. It counts as in vivo. The following applies: mice. As for the experimental part:
(§3) mRNA diluted in 50 mM citrate buffer (pH 4) and lipid mix (37.5 mM in ethanol) containing 50 mol % SM-102, 10 mol % DSPC, 38.5 mol % Cholesterol, and 1.5 mol % DMG-PEG2000 were assembled into LNP using a NanoAssemblr Spark instrument [Precision Nanosystems]. Upon formulation, mRNA-LNPs were diluted in 12 mL 1×PBS solution and the buffer was exchanged by concentrating with a 30 kDa spin filter [MilliporeSigma, UFC901008] to remove residue ethanol. Concentrations and encapsulation efficiency of mRNA were determined using Quant-it RiboGreen RNA Assay Kit [ThermoFisher, R11490]. 1 μg NanoLuc or hEPO mRNA-LNP in a total volume of 100 μL was injected through retro orbital injection into each mouse. Four mice were used for each condition of each experiment (NanoLuc imaging, hEPO ELISA, and reticulocyte counting). For NanoLuc imaging, PBS injection was used as negative control. For hEPO/reticulocyte experiments, poly(C)-LNP complex was used as negative control.
10 μL […] sample was added into 1 mL of the Reticulocyte Reagent [BD Bioscience] at the indicated time points and the mixture was incubated at room temperature for 30 minutes with protection from light. The samples were analyzed with Beckman CytoFLEX LX Flow Cytometer with 100,000-event records for each sample. Thiazole orange positive cells are defined as reticulocytes.
(In flow cytometry, cells or beads pass a laser one at a time.)

Data set [5] can be described thus: Quantification of plasma hEPO by ELISA after mRNA-LNP injection. It counts as in vivo. Conditions: mice; hEPO mRNA-LNP retro-orbital; 6 hours. As for the experimental part: All animal procedures followed animal care guidelines approved by the Institutional Animal Care and Use Committee (IACUC) of the Broad Institute of MIT and Harvard under animal protocol #0255-08-19. Animal experiments were conducted in compliance with IACUC policies and NIH guidelines. The BALB/cj (male, 6~8 weeks old) mice used for in vivo NanoLuc assay in this study were purchased from The Jackson Laboratory (JAX). The C57BL/6 mice (female, 7 weeks old), used for hEPO assay in this study were purchased from The Jackson Laboratory (JAX).
as §3
At the indicated time points, approximately 100 μL of blood was collected with EDTA-coated capillary tubes from each mouse and then transferred to an EDTA-coated tube. The collected blood samples were centrifuged at 2000 g for 10 min, followed by transferring the resulting plasma into another tube. The hEPO levels in the plasma samples were measured by Human Erythropoietin (EPO) ELISA kit [LEGEND MAX, 442907]. Final concentrations for hEPO were adjusted based on the volume and dilution fold.
For orientation: In an ELISA, binding on a coated surface is turned into a signal by an enzyme label.

Data set [6] concerns the target eIF4E (UniProt P06730 P06730:1-217). As to the kind of experiment: EMSA; 50 mM KCl, 10 mM Tris-HCl pH 7.6, 1 mM DTT, 4 C. Conditions: tags: His tag; Cayman Chemical 25150; label: 3' AF647-cytidine (EMSA). As for the experimental part: as §1, §2

Strand notation (5' to 3'): a small letter for the sugar, then the base; units joined by * are phosphorothioate-linked, units joined directly phosphodiester-linked; [ ] holds rarer units or linkages, { } end groups; capitals alone tell only the bases. {m7G} = 7-methylguanosine cap nucleotide; l = locked nucleic acid (LNA); m = 2'-O-methyl; r = 2'-OH (RNA); {P} = phosphate

Chain of eIF4E (UniProt P06730 P06730:1-217) (P06730 whole entry, one chain of several): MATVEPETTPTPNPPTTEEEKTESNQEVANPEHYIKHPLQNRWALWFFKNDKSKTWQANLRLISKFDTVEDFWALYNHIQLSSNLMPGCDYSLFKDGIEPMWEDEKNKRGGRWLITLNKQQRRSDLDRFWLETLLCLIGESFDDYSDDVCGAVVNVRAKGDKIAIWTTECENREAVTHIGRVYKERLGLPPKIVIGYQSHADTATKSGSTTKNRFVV
T2 sequence (P06730 whole entry): as the sequence (P06730 whole entry, one chain of several) above

In the case of “construct 15: m7G cap; /5Phos/mAmGmAmGmAmArUrArArArArA (SEQ ID NO: 16) ({P}-mAmGmAmGmAmArUrArArArArA; m7G cap on the 5'-phosphate)”, the “Protein expression (Firefly luciferase luminescence normalized to Renilla, then to m7G-rG), fold increase” value with HeLa cells [1] amounted to 6.9 fold. Further, the entries for the “Susceptibility / resistance to hDcp2 decapping” value in data set [2] (listed as 2′OMe at first 6 bases) and in data set [2] (listed as 2′OMe within the first 6 bases) were “increased decapping resistance to a similar level as LNA modification” and “increased decapping resistance”, respectively. The Kd with eIF4E [3] was determined as 2450 ± 140 nM.

For “construct 22: LNAm7G cap; /5Phos/+ArGrArGrArArUrArArArArA (SEQ ID NO: 23) ({P}-lArGrArGrArArUrArArArArA; LNA-modified m7G cap on the 5'-phosphate)”, the “Protein expression (Firefly luciferase luminescence normalized to Renilla, then to m7G-rG), fold increase” value with HeLa cells [1] was determined as 8.6 fold. Further, the “Capped transcripts remaining after hDcp2 decapping” value in data set [2] (after 60 minutes) worked out at 71%~73. Also, the Kd with eIF4E [3] came out at 1420 ± 126 nM.

With “construct 43: m7G cap; /5Phos/mAmGmAmGmAmAmUmAmAmAmAmAmAmGmGmGmAmAmUmAmAmAmC (SEQ ID NO: 26) ({P}-mAmGmAmGmAmAmUmAmAmAmAmAmAmGmGmGmAmAmUmAmAmAmC; m7G cap on the 5'-phosphate)”, the “Susceptibility / resistance to hDcp2 decapping” value in data set [2] is listed as “increased decapping resistance to a similar level as LNA modification”.

“construct 61: m1ψ NLuc circRNA with 20-nt insert, annealed non-covalently to m7G-capped complementary oligo (SEQ ID NO: 116, 177) (chain 1 AAAAACUUACCAAGCGAAGAACAGAAAAA; chain 2 GUCUGUUCUUCGCUUGGUAAG; m1ψ; circRNA; m7G-capped complementary oligo annealed; modified_base 1 OTHER; 5'-phosphate modified nucleotide; modified_base 29 OTHER; 3'-phosphate modified nucleotide; 5'-phosphate modified 7-methylguanosine)”: the “Enhancement of NLuc protein production by non-covalent complementary capped oligo” value in the data set on HeLa cells [4] was “up to 5 fold”.

For the molecule “construct S21: hEPO mRNA with m7G-rG cap, in LNP (SEQ ID NO: 138) (GGAGAAUAAAAA; RNA, 5' {m7G}, backbone not given here; capped 5' oligo ligated to hEPO mRNA, formulated in LNP) [reference compound]”, in the data set on reticulocytes (day 6, vs poly(C)-LNP), the “Effect on reticulocyte counts, result in words” value is on record as “non-significant”. Moreover, the “Reticulocytes, % of total red blood cells” value in the data set with reticulocytes (day 6 post-administration) came out at 4±0.3%. Also, the “Peak plasma hEPO expression” value in data set [5] was 733±123 mlU/mL.

Molecule AGAGAAUAAAAA (ssRNA, 5' m7G cap with LNA sugar; LNA at position 1) [LNAm7G-LNA (22)] returned a Kd with eIF4E [6] of 1420 nM.

In turn, AGAGAAUAAAAA (ssRNA, 5' m7G cap with LNA sugar; 2'-OMe at positions 1-6) [LNAm7G-2OMex6 (24)] showed a Kd with eIF4E [6] of 1570 nM.

In the case of AGAGAAUAAAAA (ssRNA, 5' m7G cap; 2'-OMe at positions 1-6) [m7G-6x2OMe (15)], the Kd with eIF4E [6] was found to be 2450 nM.
